Assay results taken from ChEMBL document CHEMBL4507285, “Data for DCP probe MRL-SYKi” (2021).

How the values were obtained:
[1] = target: Histamine H4 receptor (Homo sapiens) (UniProt Q9H3N8); details: Compound concentration 10.0 uM
[2] = target: Ribosomal protein S6 kinase alpha-5 (Homo sapiens) (UniProt O75582); details: Compound concentration 100.0 nM
[3] = target: Activated CDC42 kinase 1 (Homo sapiens) (UniProt Q07912); details: Compound concentration 100.0 nM
[4] = target: Casein kinase I isoform alpha-like (Homo sapiens) (UniProt Q8N752); details: Compound concentration 100.0 nM
[5] = tested on: Tyrosine-protein kinase ABL1 (Homo sapiens), P00519 [F317L]; details: Compound concentration 100.0 nM
[6] = target: MAP kinase-activated protein kinase 5 (Homo sapiens) (UniProt Q8IW41); details: Compound concentration 100.0 nM
[7] = target: Serine/threonine-protein kinase ULK1 (Homo sapiens) (UniProt O75385); details: Compound concentration 100.0 nM
[8] = target: Cyclin-dependent kinase 18 (Homo sapiens) (UniProt Q07002); details: Compound concentration 100.0 nM
[9] = target: Serine/threonine-protein kinase BRSK1 (Homo sapiens) (UniProt Q8TDC3); details: Compound concentration 100.0 nM
[10] = target: Mitotic checkpoint serine/threonine-protein kinase BUB1 (Homo sapiens) (UniProt O43683); details: Compound concentration 100.0 nM
[11] = target: Bone morphogenetic protein receptor type-1B (Homo sapiens) (UniProt O00238); details: Compound concentration 100.0 nM
[12] = target: Tyrosine-protein kinase ABL1 (Homo sapiens) (UniProt P00519); details: Compound concentration 100.0 nM
[13] = target: Tyrosine-protein kinase JAK1 (Homo sapiens) (UniProt P23458); details: Compound concentration 100.0 nM
[14] = target: Dual specificity mitogen-activated protein kinase kinase 1 (Homo sapiens) (UniProt Q02750); details: Compound concentration 100.0 nM
[15] = target: Serine/threonine-protein kinase ULK3 (Homo sapiens) (UniProt Q6PHR2); details: Compound concentration 100.0 nM
[16] = target: Serine/threonine-protein kinase D3 (Homo sapiens) (UniProt O94806); details: Compound concentration 100.0 nM
[17] = tested on: Epidermal growth factor receptor (Homo sapiens), P00533 [L858R,T790M]; details: Compound concentration 100.0 nM
[18] = target: Serine/threonine-protein kinase NLK (Homo sapiens) (UniProt Q9UBE8); details: Compound concentration 100.0 nM
[19] = tested on: Tyrosine-protein kinase ABL1 (Homo sapiens), P00519 [Q252H]; details: Compound concentration 100.0 nM
[20] = tested on: Phosphatidylinositol 4,5-bisphosphate 3-kinase catalytic subunit alpha isoform (Homo sapiens), P42336 [I800L]; details: Compound concentration 100.0 nM
[21] = target: TGF-beta receptor type-2 (Homo sapiens) (UniProt P37173); details: Compound concentration 100.0 nM
[22] = target: Phosphatidylinositol 3-kinase C2 domain-containing subunit gamma (Homo sapiens) (UniProt O75747); details: Compound concentration 100.0 nM
[23] = target: Activin receptor type-1B (Homo sapiens) (UniProt P36896); details: Compound concentration 100.0 nM
[24] = target: Cyclin-dependent kinase-like 2 (Homo sapiens) (UniProt Q92772); details: Compound concentration 100.0 nM
[25] = target: Atypical kinase COQ8A, mitochondrial (Homo sapiens) (UniProt Q8NI60); details: Compound concentration 100.0 nM
[26] = target: Inhibitor of nuclear factor kappa-B kinase subunit beta (Homo sapiens) (UniProt O14920); details: Compound concentration 100.0 nM
[27] = target: Glycogen synthase kinase-3 alpha (Homo sapiens) (UniProt P49840); details: Compound concentration 100.0 nM
[28] = target: Serine/threonine-protein kinase DCLK1 (Homo sapiens) (UniProt O15075); details: Compound concentration 100.0 nM
[29] = target: Discoidin domain-containing receptor 2 (Homo sapiens) (UniProt Q16832); details: Compound concentration 100.0 nM
[30] = target: cGMP-dependent protein kinase 2 (Homo sapiens) (UniProt Q13237); details: Compound concentration 100.0 nM
[31] = target: Transient receptor potential cation channel subfamily M member 6 (Homo sapiens) (UniProt Q9BX84); details: Compound concentration 100.0 nM
[32] = target: Tyrosine-protein kinase ITK/TSK (Homo sapiens) (UniProt Q08881); details: Compound concentration 100.0 nM
[33] = target: cAMP-dependent protein kinase catalytic subunit beta (Homo sapiens) (UniProt P22694); details: Compound concentration 100.0 nM
[34] = target: Wee1-like protein kinase 2 (Homo sapiens) (UniProt P0C1S8); details: Compound concentration 100.0 nM
[35] = target: G protein-coupled receptor kinase 3 (Homo sapiens) (UniProt P35626); details: Compound concentration 100.0 nM
[36] = target: Serine/threonine-protein kinase Sgk2 (Homo sapiens) (UniProt Q9HBY8); details: Compound concentration 100.0 nM
[37] = target: Fibroblast growth factor receptor 1 (Homo sapiens) (UniProt P11362); details: Compound concentration 100.0 nM
[38] = target: Serine/threonine-protein kinase LATS1 (Homo sapiens) (UniProt O95835); details: Compound concentration 100.0 nM
[39] = target: SRSF protein kinase 3 (Homo sapiens) (UniProt Q9UPE1); details: Compound concentration 100.0 nM
[40] = target: Macrophage-stimulating protein receptor (Homo sapiens) (UniProt Q04912); details: Compound concentration 100.0 nM
[41] = target: RAF proto-oncogene serine/threonine-protein kinase (Homo sapiens) (UniProt P04049); details: Compound concentration 100.0 nM
[42] = target: Ribosomal protein S6 kinase alpha-6 (Homo sapiens) (UniProt Q9UK32); details: Compound concentration 100.0 nM
[43] = target: Proto-oncogene tyrosine-protein kinase ROS (Homo sapiens) (UniProt P08922); details: Compound concentration 100.0 nM
[44] = target: Serine/threonine-protein kinase 25 (Homo sapiens) (UniProt O00506); details: Compound concentration 100.0 nM
[45] = target: Serine/threonine-protein kinase TBK1 (Homo sapiens) (UniProt Q9UHD2); details: Compound concentration 100.0 nM

Sequence of Dual specificity mitogen-activated protein kinase kinase 1 (Homo sapiens) (Q02750 whole entry): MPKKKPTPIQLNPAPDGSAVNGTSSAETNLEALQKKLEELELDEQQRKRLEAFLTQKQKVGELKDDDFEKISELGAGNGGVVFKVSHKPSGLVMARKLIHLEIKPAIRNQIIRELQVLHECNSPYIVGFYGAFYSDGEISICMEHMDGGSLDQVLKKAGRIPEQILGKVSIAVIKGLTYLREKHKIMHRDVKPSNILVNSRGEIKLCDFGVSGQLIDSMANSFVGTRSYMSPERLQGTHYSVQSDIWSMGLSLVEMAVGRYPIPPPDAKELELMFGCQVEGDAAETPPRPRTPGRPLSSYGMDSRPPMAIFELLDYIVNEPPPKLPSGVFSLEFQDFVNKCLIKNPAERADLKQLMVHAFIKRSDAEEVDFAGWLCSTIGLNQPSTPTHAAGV
Sequence of Proto-oncogene tyrosine-protein kinase ROS (Homo sapiens) (P08922 whole entry): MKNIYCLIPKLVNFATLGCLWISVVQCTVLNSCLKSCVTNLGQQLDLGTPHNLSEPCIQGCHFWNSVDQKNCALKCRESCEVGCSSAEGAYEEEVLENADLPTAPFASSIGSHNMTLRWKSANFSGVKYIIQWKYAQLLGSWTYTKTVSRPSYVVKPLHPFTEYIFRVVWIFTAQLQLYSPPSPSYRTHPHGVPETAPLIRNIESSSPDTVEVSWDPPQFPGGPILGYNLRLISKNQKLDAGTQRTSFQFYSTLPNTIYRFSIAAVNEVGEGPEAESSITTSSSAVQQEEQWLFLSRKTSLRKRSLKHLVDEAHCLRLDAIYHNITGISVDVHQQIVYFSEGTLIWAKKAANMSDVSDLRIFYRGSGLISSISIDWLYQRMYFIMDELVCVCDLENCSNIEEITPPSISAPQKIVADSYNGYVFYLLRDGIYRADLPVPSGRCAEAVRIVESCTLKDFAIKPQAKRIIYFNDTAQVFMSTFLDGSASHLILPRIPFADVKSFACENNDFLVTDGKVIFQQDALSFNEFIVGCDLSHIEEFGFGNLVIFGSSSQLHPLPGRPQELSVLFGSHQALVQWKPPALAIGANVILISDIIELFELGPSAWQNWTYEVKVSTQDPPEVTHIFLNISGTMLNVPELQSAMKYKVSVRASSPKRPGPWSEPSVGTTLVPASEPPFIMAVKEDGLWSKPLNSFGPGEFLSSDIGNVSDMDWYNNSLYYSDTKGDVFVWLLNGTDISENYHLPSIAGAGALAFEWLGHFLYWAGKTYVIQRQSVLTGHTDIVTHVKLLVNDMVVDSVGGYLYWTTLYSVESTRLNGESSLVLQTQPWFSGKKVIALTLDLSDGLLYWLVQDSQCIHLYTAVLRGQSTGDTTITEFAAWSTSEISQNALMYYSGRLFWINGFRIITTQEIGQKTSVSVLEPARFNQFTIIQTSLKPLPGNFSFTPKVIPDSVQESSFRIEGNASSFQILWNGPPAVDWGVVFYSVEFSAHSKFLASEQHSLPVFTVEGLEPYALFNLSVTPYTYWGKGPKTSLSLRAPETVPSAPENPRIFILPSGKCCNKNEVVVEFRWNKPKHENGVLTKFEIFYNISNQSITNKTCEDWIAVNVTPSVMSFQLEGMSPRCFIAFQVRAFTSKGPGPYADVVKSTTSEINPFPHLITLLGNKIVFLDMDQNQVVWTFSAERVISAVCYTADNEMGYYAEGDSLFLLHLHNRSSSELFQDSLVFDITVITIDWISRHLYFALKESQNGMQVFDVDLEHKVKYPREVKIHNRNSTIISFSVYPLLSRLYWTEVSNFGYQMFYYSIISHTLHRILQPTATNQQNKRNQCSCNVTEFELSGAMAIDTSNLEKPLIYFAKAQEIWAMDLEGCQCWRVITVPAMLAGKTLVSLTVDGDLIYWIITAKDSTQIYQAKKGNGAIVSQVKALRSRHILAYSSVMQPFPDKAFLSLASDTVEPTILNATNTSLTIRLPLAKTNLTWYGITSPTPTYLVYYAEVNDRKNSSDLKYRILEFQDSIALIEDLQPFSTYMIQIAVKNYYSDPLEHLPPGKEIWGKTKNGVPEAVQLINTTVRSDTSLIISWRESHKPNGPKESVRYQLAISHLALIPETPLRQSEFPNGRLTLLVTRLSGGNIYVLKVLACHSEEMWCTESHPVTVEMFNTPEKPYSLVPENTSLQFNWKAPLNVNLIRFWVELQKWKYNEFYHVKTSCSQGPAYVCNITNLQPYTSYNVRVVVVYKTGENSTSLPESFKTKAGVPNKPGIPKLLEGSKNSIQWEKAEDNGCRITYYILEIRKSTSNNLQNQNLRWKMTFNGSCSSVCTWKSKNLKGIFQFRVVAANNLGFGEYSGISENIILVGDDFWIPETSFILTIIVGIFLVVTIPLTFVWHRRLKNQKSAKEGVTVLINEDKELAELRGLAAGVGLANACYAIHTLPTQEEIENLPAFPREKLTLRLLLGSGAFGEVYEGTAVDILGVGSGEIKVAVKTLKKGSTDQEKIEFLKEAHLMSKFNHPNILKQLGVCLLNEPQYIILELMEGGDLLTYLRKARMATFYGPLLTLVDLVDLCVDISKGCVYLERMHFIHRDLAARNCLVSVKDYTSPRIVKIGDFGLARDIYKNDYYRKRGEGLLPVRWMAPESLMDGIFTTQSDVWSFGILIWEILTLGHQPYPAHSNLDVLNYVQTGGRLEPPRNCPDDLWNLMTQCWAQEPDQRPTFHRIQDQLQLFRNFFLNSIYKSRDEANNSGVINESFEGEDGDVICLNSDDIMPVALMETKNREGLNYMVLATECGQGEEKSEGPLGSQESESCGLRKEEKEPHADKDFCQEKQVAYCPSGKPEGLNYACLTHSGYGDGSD
Sequence of Macrophage-stimulating protein receptor (Homo sapiens) (Q04912 25-304 limits assumed): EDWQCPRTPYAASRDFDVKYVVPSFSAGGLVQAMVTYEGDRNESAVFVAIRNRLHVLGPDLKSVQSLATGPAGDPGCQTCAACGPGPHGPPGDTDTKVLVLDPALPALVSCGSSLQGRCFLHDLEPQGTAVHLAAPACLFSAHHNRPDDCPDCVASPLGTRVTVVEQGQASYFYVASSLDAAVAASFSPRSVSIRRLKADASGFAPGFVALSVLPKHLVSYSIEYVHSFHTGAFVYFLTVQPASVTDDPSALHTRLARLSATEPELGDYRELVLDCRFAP
Sequence of Macrophage-stimulating protein receptor (Homo sapiens) (Q04912 310-1400 limits assumed): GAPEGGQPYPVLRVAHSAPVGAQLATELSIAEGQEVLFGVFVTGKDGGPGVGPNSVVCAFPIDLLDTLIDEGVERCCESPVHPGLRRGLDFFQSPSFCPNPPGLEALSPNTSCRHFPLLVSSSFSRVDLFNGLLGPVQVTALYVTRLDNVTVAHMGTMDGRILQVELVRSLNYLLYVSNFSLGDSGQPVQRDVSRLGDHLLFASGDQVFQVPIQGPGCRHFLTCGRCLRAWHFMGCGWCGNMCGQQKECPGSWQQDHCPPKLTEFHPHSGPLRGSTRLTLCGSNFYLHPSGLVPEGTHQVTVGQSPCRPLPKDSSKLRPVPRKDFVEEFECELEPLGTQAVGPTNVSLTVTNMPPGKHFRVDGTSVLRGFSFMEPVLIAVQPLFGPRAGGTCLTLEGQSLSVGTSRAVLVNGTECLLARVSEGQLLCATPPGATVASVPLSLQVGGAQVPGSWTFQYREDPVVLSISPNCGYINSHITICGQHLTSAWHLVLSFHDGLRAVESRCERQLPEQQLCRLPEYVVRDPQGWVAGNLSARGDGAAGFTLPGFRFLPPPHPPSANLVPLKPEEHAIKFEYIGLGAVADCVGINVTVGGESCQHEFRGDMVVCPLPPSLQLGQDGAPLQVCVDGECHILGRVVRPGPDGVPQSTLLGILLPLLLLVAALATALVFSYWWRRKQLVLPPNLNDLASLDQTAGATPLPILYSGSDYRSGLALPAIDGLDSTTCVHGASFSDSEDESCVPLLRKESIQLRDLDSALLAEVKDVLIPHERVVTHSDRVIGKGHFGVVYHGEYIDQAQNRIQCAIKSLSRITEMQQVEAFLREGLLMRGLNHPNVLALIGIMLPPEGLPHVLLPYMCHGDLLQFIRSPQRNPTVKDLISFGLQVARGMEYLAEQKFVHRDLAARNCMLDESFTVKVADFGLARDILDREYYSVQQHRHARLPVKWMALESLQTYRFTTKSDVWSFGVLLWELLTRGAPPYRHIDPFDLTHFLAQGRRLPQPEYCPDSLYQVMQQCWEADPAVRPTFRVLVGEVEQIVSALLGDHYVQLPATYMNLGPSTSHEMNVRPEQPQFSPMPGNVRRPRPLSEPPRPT
Sequence of Bone morphogenetic protein receptor type-1B (Homo sapiens) (O00238 whole entry): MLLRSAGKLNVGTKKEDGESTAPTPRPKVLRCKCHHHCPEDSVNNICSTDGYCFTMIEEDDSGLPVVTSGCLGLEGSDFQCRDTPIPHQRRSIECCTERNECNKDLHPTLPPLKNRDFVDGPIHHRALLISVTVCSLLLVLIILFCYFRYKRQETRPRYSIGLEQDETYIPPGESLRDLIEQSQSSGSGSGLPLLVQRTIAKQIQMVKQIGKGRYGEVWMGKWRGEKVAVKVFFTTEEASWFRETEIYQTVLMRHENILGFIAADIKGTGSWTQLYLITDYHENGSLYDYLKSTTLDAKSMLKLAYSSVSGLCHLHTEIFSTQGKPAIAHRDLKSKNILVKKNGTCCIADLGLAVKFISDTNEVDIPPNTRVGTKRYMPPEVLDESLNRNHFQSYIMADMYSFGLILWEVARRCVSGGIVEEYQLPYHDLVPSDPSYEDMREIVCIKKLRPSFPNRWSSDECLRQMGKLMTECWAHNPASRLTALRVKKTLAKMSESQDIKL
Sequence of Casein kinase I isoform alpha-like (Homo sapiens) (Q8N752 whole entry, canonical isoform): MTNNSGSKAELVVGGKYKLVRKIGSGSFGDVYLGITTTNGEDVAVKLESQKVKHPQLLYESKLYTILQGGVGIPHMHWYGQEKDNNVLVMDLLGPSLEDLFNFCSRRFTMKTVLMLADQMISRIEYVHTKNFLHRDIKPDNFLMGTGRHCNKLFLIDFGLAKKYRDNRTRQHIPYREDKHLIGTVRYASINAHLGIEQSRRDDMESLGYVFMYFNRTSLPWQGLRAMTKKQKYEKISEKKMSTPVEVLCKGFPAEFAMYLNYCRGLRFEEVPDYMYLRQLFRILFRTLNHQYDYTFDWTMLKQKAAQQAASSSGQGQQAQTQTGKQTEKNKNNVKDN

## Cc1ccc(-c2cnc([C@@]3(O)CC[C@H](C(=O)O)C(C)(C)C3)s2)cc1Nc1cccc(C(F)(F)F)n1 [MRL-SYKi-NC]
[1]
  inhibition: 8.06%
[2]
  residual activity: 100%
[3]
  residual activity: 100%
[4]
  residual activity: 91.9%
[5]
  residual activity: 99.1%
[6]
  residual activity: 97.7%
[7]
  residual activity: 73.1%
[8]
  residual activity: 100%
[9]
  residual activity: 100%
[10]
  residual activity: 100%
[11]
  residual activity: 92.3%
[12]
  residual activity: 100%
[13]
  residual activity: 100%
[14]
  residual activity: 95%
[15]
  residual activity: 68.1%
[16]
  residual activity: 100%
[17]
  residual activity: 100%
[18]
  residual activity: 100%
[19]
  residual activity: 82.2%
[20]
  residual activity: 76.7%
[21]
  residual activity: 100%
[22]
  residual activity: 59.6%
[23]
  residual activity: 100%
[24]
  residual activity: 94.3%
[25]
  residual activity: 100%
[26]
  residual activity: 43.1%
[27]
  residual activity: 86.8%
[28]
  residual activity: 91.3%
[29]
  residual activity: 100%
[30]
  residual activity: 69.9%
[31]
  residual activity: 77.1%
[32]
  residual activity: 94.7%
[33]
  residual activity: 71.5%
[34]
  residual activity: 89.5%
[35]
  residual activity: 98.3%
[36]
  residual activity: 57.3%
[37]
  residual activity: 92.4%
[38]
  residual activity: 100%
[39]
  residual activity: 100%
[40]
  residual activity: 100%
[41]
  residual activity: 100%
[42]
  residual activity: 100%
[43]
  residual activity: 91.5%
[44]
  residual activity: 72.5%
[45]
  residual activity: 86.4%

## Cc1cc(Nc2nccc(C)n2)cc(-c2cnc([C@@]3(O)CC[C@H](C(=O)O)C(C)(C)C3)s2)c1 [MRL-SYKi]
[1]
  inhibition: 7.61%
[2]
  residual activity: 100%
[3]
  residual activity: 100%
[4]
  residual activity: 100%
[5]
  residual activity: 100%
[6]
  residual activity: 100%
[7]
  residual activity: 100%
[8]
  residual activity: 100%
[9]
  residual activity: 100%
[10]
  residual activity: 100%
[11]
  residual activity: 100%
[12]
  residual activity: 63.3%
[13]
  residual activity: 100%
[14]
  residual activity: 100%
[15]
  residual activity: 56.1%
[16]
  residual activity: 100%
[17]
  residual activity: 46.2%
[18]
  residual activity: 73%
[19]
  residual activity: 32.4%
[20]
  residual activity: 95.1%
[21]
  residual activity: 49.5%
[22]
  residual activity: 95.9%
[23]
  residual activity: 92.7%
[24]
  residual activity: 89.6%
[25]
  residual activity: 100%
[26]
  residual activity: 100%
[27]
  residual activity: 100%
[28]
  residual activity: 64.1%
[29]
  residual activity: 100%
[30]
  residual activity: 100%
[31]
  residual activity: 94.8%
[32]
  residual activity: 81%
[33]
  residual activity: 100%
[34]
  residual activity: 100%
[35]
  residual activity: 73.7%
[36]
  residual activity: 100%
[37]
  residual activity: 82%
[38]
  residual activity: 100%
[39]
  residual activity: 100%
[40]
  residual activity: 65.9%
[41]
  residual activity: 100%
[42]
  residual activity: 77.2%
[43]
  residual activity: 97%
[44]
  residual activity: 100%
[45]
  residual activity: 55.5%
